Measured values: paper PMC11840788, “3,3′-Diindolylmethane (DIM): A Molecular Scaffold for Inhibition of WWP1 and WWP2, Members of the NEDD4 Family HECT E3 Ligases” (ACS Omega, 2025)
Several values for one entry are separate records, joined by “and”; a condition that tells them apart may be missing. Equal entries are not always repeated.

Target: T1, WWP1 (His-tagged WWP1-L34H) (Homo sapiens, UniProt Q9H0M0)
T1 construct: WWP1- 2,3-linker-WW3-WW4-HECT (WWP1-L34H); made in house; host or cells: E. coli BL21-CodonPlus RP (plasmid pET32a-WWP1-L34H, gift of Dr Wenyu Wen)
Assay: in vitro autoubiquitination assay (single shot and dose dependency), WWP1
Assay type: biochemical
Method: A single shot in vitro autoubiquitination assay was performed for I3C, DIM and each of the derivatives against WWP1 and WWP2 using a compound concentration of 1 mM (1% DMSO) (SI Figure S3). […] These active compounds were then subjected to a detailed dose dependency analysis leading to IC50 values. This strategy has previously been employed to screen other WWP1/WWP2 small molecule inhibitors as well as used to assess I3C inhibition toward NEDD4-1.[29],[32] In this way, compounds displaying a relative activity (RA) of less than 50% in the single shot assay were further screened for dose-dependency using a logarithmic concentration range from 10 nM to 1 mM (1% DMSO) (SI Figure S4). […] These were confirmed by counter assays to remove compounds possibly interacting with other enzymes in the assay or interfering with the assay directly (SI Table S1).
Cell lysate containing His-tagged WWP1-L34H or GST-tagged WWP2-FL proteins were incubated on either 96-well Clear Pierce glutathione or nickel-coated plates for 1 h. Reaction mixtures of either 3 ng/well GST-Uba1 and 15 ng/well UbcH7 or 10 ng/well His-Uba1 and 150 ng/well His-UbcH7 were incubated together in 25 mM Tris pH 8.0, 100 mM NaCl, 4 mM MgCl2 containing 60 ng/well FLAG-ubiquitin and 1.25 mM ATP for 40 min. A prior 1% BSA plate blocking step is required for nickel-coated plates. After plate washing, 2 μL of the compound was added at the desired concentration (1% DMSO) followed by 18 μL of the reaction mixture. This was then incubated for 2 h with 0 and 100% controls before 100 μL of anti-FLAG M2-Peroxidase HRP (1:10,000 PBST) was added to each well and incubated for 1 h. Finally, 100 μL of 1 × TMB substrate solution (Invitrogen) was added to each well and incubated for up to 10 min until sufficient blue color change was observed. To stop the reaction, 100 μL of 1 M HCl was added. For the counter assay, 3 ng/well GST-Uba1 and 200 ng/well UbcH7 were incubated with the other reaction mixture components for 1 h before incubating onto plates for a further 1 h. All other steps were followed. The plates were washed three times with PBST (and 15 mM Imidazole) between each step. Quantification was measured by absorbance read at 450 nm. All assay optimizations were as previously reported.[32] IC50 nonlinear regression curves were calculated in GraphPad v10.2 (Prism). […]
Auto-ubiquitination Assay
Cell lysate containing His-tagged WWP1-L34H or GST-tagged WWP2-FL proteins were incubated on either 96-well Clear Pierce glutathione 2 or nickel-coated plates for 1 hour. Reaction mixtures of either 3 ng/well GST-Uba1 and 15 ng/well UbcH7 or 10 ng/well His-Uba1 and 150 ng/well His-UbcH7 were incubated together in 25 mM Tris pH 8.0, 100 mM NaCl, 4 mM MgCl2 containing 60 ng/well FLAG-ubiquitin and 1.25 mM ATP for 40 minutes. A prior 1 % BSA plate blocking step is required for nickel-coated plates. After plate washing, 2 μL of the compound was added at the desired concentration (1 % DMSO) followed by 18 μL of the reaction mixture. This was then incubated for 2 hours with 0% and 100% controls before 100 μL of anti-FLAG M2-Peroxidase HRP (1: 10,000 PBST) was added to each well and incubated for 1 hour.
Finally, 100 μL of 1 × TMB substrate solution (Invitrogen) was added to each well and […]
incubated for up to 10 minutes until sufficient blue colour change was observed. To stop the reaction, 100 μL of 1 M HCl was added. For the counter assay, 3 ng/well GST-Uba1 and 200 ng/well UbcH7 were incubated with the other reaction mixture components for 1 hour before incubating onto plates for a further 1 hour. All other steps were followed.
The plates were washed three times with PBST (and 15 mM Imidazole) between each step. Quantification was measured by absorbance read at 450 nm. All assay optimisations have been previously reported by Watt and colleagues3.
Relative activity (RA) was determined by comparing the autoubiquitination of the WWP ligases in the presence of each compound, i.e TMB absorbance (450 nm), to the […]

T1 sequence (Q9H0M0 415-922, stated change not applied): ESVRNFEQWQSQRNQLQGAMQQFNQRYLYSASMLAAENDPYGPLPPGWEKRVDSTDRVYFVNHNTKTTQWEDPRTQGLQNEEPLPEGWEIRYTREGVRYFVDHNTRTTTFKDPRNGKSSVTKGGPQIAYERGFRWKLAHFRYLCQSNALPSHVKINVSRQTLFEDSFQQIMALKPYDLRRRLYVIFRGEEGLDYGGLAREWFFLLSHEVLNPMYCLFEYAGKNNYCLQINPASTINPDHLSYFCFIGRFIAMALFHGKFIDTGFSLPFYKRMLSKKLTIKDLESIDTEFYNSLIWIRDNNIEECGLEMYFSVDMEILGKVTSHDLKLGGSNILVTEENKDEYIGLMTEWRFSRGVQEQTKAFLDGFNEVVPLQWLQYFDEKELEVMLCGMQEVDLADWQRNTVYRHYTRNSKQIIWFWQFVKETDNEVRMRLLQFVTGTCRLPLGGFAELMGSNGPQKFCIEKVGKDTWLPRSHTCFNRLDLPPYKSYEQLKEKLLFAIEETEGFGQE

inhibition of WWP1 (in words) (autoubiquitination assay): displayed inhibition
IC50 (nonlinear regression of RA against log concentration, 1 mM to 10 nM, 1% DMSO): ~1010 µM and 1010 µM
WWP1 RA (%) relative activity (single shot, compound at 1 mM (1% DMSO), standardized to 0 and 100% controls): 48.2 ± 8.6% and 48.2%
SMILES: OCc1c[nH]c2ccccc12 [Compound I3C, Indole-3-carbinol, reference compound]
